This note sets out measurements from publication PMC5614603, “Structural insights into substrate selectivity of ribosomal RNA methyltransferase RlmCD” (PLoS ONE, 2017).

One series addresses T1, RlmCDs (Streptococcus pneumoniae, UniProt Q97R12).
T1 construct: gene SP_1029; core region residues 1-454; 8xHis-SUMO tag cut by ULP1; E. coli BL21 (Gold)
Put plainly: in-vitro methyltransferase assay, 3H counting on RNA. It counts as biochemical. Conditions: labelled compound (3H-SAM); 18-mer rRNA-h35, 3 mM MgCl2, pH 8.0, 37 °C, 2 h.

In the next series the target is RlmCDs E443Q (Streptococcus pneumoniae, UniProt Q97R12 1-454, E443Q). Put plainly: crystal structure (2.85 A); SAH (SAM added); only the 5-bp stem modelled, loop not visible; Crystallization: 8 mg/ml protein, protein:SAM:RNA 1:2:1.2, 0.1 M ammonium sulfate, 0.01 M MgCl2, 0.05 M MES, 20% w/v PEG8000, pH 5.6; protein storage buffer 20. Conditions: protein: recombinant; tags: N-terminal 8xHis-SUMO, cleaved with ULP1; hairpin.

On to `C[S+](CC[C@H](N)C(=O)O)C[C@H]1O[C@@H](n2cnc3c(N)ncnc32)[C@H](O)[C@@H]1O` (some centres unmarked) [SAM], for which the “in-vitro methyltransferase assay, 3H counting on RNA” value on RlmCDs was “both full-length RlmCD and its shorter construct RlmCDs exhibit strong MTase activity”.

GGCACGUUGAAAAGUGCC (structured_RNA, m5U at position 8 (U747)) [m5U747 rRNA-h35 (18-mer, 23S rRNA helix 35)]: the binding result with RlmCDs E443Q is listed as “binds”.
